Laboratory results: the supplement of paper PMC10883282
± gives the standard deviation of the averaged measurements.

Experiments:
Experiment in all cases: relative viability vs DMSO control (72 h) (fraction); higher = more viable cells
[1] = system: SK-ES-1
Outline: (§1)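 ATPLite readings, expressed as percent growth and averaged over up to triplicate wells, provided relative viability. Before reading, sarcoma cell lines seeded in 384-well plates to reach 80–90% confluence received 2.5 µl of serially diluted compound after 24 h, from source plates of 10 mM to 0.0002 mM. Plates were held 72 h at 37 °C, 5% CO2, with 0.1% DMSO as vehicle and a 5 µM positive control. The data were rescaled to 1 for full and 0 for none.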

[2] = system: G401
Outline: as §1

[3] = system: A204
Outline: as §1

[4] = system: SW684
Outline: as §1

[5] = system: MES-SA
Outline: as §1

[6] = system: VA-ES-BJ
Outline: as §1

[7] = system: SK-LMS-1
Outline: as §1

[8] = system: RD
Outline: as §1

[9] = system: KHOS-NP
Outline: as §1

[10] = system: SYO-1
Outline: as §1

[11] = system: HS729
Outline: as §1

[12] = system: SW872
Outline: as §1

C[C@@H]1COC(Nc2ccc3ncnc(Nc4ccc(OCc5nccs5)c(Cl)c4)c3c2)=N1 [Varlitinib]
Conditions	relative viability
[1], 0.00017 µM	0.975 ± 0.036
[1], 0.00051 µM	0.974 ± 0.025
[1], 0.00152 µM	0.976 ± 0.076
[1], 0.00457 µM	0.99 ± 0.077
[1], 0.01372 µM	0.971 ± 0.062
[1], 0.04115 µM	0.997 ± 0.038
[1], 0.1235 µM	0.967 ± 0.043
[1], 0.3704 µM	0.962 ± 0.06
[1], 1.111 µM	0.948 ± 0.082
[1], 3.333 µM	0.873 ± 0.036
[1], 10 µM	0.671 ± 0.027
[2], 0.00017 µM	0.96 ± 0.049
[2], 0.00051 µM	0.979 ± 0.021
[2], 0.00152 µM	0.993 ± 0.038
[2], 0.00457 µM	0.966 ± 0.028
[2], 0.01372 µM	0.981 ± 0.021
[2], 0.04115 µM	0.993 ± 0.029
[2], 0.1235 µM	0.973 ± 0.02
[2], 0.3704 µM	0.939 ± 0.012
[2], 1.111 µM	0.8904 ± 0.0073
[2], 3.333 µM	0.8118 ± 0.0052
[2], 10 µM	0.663 ± 0.0085
[3], 0.00017 µM	1.06 ± 0.038
[3], 0.00051 µM	1.06 ± 0.024
[3], 0.00152 µM	1.07 ± 0.056
[3], 0.00457 µM	1.06 ± 0.042
[3], 0.01372 µM	1.08 ± 0.022
[3], 0.04115 µM	1.11 ± 0.012
[3], 0.1235 µM	1.06 ± 0.038
[3], 0.3704 µM	1.01 ± 0.052
[3], 1.111 µM	0.905 ± 0.062
[3], 3.333 µM	0.763 ± 0.037
[3], 10 µM	0.258 ± 0.027
[4], 0.00017 µM	1.01 ± 0.016
[4], 0.00051 µM	1.09 ± 0.074
[4], 0.00152 µM	1.07 ± 0.045
[4], 0.00457 µM	1.08 ± 0.042
[4], 0.01372 µM	1.08 ± 0.04
[4], 0.04115 µM	1.08 ± 0.055
[4], 0.1235 µM	1.063 ± 0.003
[4], 0.3704 µM	1.08 ± 0.043
[4], 1.111 µM	1.06 ± 0.061
[4], 3.333 µM	1.03 ± 0.028
[4], 10 µM	1.03 ± 0.034
[5], 0.00017 µM	0.965 ± 0.024
[5], 0.00051 µM	0.965 ± 0.037
[5], 0.00152 µM	0.934 ± 0.021
[5], 0.00457 µM	0.97 ± 0.013
[5], 0.01372 µM	0.946 ± 0.045
[5], 0.04115 µM	0.9545 ± 0.009
[5], 0.1235 µM	0.945 ± 0.023
[5], 0.3704 µM	0.888 ± 0.041
[5], 1.111 µM	0.888 ± 0.03
[5], 3.333 µM	0.807 ± 0.05
[5], 10 µM	0.45 ± 0.035
[6], 0.00017 µM	1.06 ± 0.014
[6], 0.00051 µM	1.06 ± 0.014
[6], 0.00152 µM	1.05 ± 0.033
[6], 0.00457 µM	1.04 ± 0.015
[6], 0.01372 µM	1.08 ± 0.031
[6], 0.04115 µM	1.07 ± 0.066
[6], 0.1235 µM	1.12 ± 0.045
[6], 0.3704 µM	1.09 ± 0.039
[6], 1.111 µM	1.05 ± 0.036
[6], 3.333 µM	1.06 ± 0.036
[6], 10 µM	0.96 ± 0.029
[7], 0.00017 µM	1.01 ± 0.016
[7], 0.00051 µM	1.033 ± 0.0096
[7], 0.00152 µM	1.06 ± 0.049
[7], 0.00457 µM	1 ± 0.039
[7], 0.01372 µM	1.02 ± 0.02
[7], 0.04115 µM	1.04 ± 0.024
[7], 0.1235 µM	1.04 ± 0.043
[7], 0.3704 µM	1.04 ± 0.04
[7], 1.111 µM	1.04 ± 0.022
[7], 3.333 µM	0.976 ± 0.031
[7], 10 µM	0.872 ± 0.038
[8], 0.00017 µM	0.983 ± 0.047
[8], 0.00051 µM	0.984 ± 0.032
[8], 0.00152 µM	0.997 ± 0.048
[8], 0.00457 µM	1.02 ± 0.022
[8], 0.01372 µM	0.998 ± 0.05
[8], 0.04115 µM	1.02 ± 0.07
[8], 0.1235 µM	1.05 ± 0.055
[8], 0.3704 µM	1 ± 0.075
[8], 1.111 µM	1.04 ± 0.063
[8], 3.333 µM	1.05 ± 0.021
[8], 10 µM	1.05 ± 0.059
[9], 0.00017 µM	1.03 ± 0.017
[9], 0.00051 µM	1.05 ± 0.025
[9], 0.00152 µM	1.06 ± 0.015
[9], 0.00457 µM	1.05 ± 0.022
[9], 0.01372 µM	1.06 ± 0.012
[9], 0.04115 µM	1.05 ± 0.02
[9], 0.1235 µM	1.07 ± 0.012
[9], 0.3704 µM	1.06 ± 0.013
[9], 1.111 µM	1.04 ± 0.019
[9], 3.333 µM	1.04 ± 0.031
[9], 10 µM	0.94 ± 0.063
[10], 0.00017 µM	1.04 ± 0.032
[10], 0.00051 µM	1.04 ± 0.038
[10], 0.00152 µM	1.03 ± 0.045
[10], 0.00457 µM	1.03 ± 0.048
[10], 0.01372 µM	1.02 ± 0.062
[10], 0.04115 µM	1.03 ± 0.021
[10], 0.1235 µM	1.02 ± 0.049
[10], 0.3704 µM	1.02 ± 0.031
[10], 1.111 µM	1.01 ± 0.022
[10], 3.333 µM	0.941 ± 0.018
[10], 10 µM	0.55 ± 0.041
[11], 0.00017 µM	1.08 ± 0.071
[11], 0.00051 µM	1.05 ± 0.045
[11], 0.00152 µM	1.08 ± 0.073
[11], 0.00457 µM	1.06 ± 0.069
[11], 0.01372 µM	1.03 ± 0.051
[11], 0.04115 µM	1.05 ± 0.09
[11], 0.1235 µM	0.993 ± 0.068
[11], 0.3704 µM	0.994 ± 0.056
[11], 1.111 µM	0.9668 ± 0.0025
[11], 3.333 µM	0.931 ± 0.06
[11], 10 µM	0.76 ± 0.028
[12], 0.00017 µM	1.09 ± 0.035
[12], 0.00051 µM	1.07 ± 0.035
[12], 0.00152 µM	1.1 ± 0.013
[12], 0.00457 µM	1.08 ± 0.033
[12], 0.01372 µM	1.065 ± 0.0091
[12], 0.04115 µM	1.08 ± 0.04
[12], 0.1235 µM	1.05 ± 0.048
[12], 0.3704 µM	1.04 ± 0.033
[12], 1.111 µM	0.993 ± 0.027
[12], 3.333 µM	0.939 ± 0.044
[12], 10 µM	0.743 ± 0.014
